# Data as given in paper PMC8496750, “Identification of the organic anion transporting polypeptides responsible for the hepatic uptake of the major metabolite of epyrifenacil, S‐3100‐CA, in mice” (Pharmacology Research & Perspectives, 2021).
# Experiment: ^14C‐plasma, liver, and kidney distribution study with or without OATP inhibitors
# Format: in vivo, Crl:CD1(ICR) mice
# Details: for Kidney/plasma ratio of ^14C / Liver/plasma ratio of ^14C / ^14C‐concentration in liver: 2 h; for Liver/plasma ratio of ^14C‐concentration: oral or intraperitoneal co‐administration of DGX
# Description: Crl:CD1(ICR) mice at the age of 7 weeks were purchased from Charles River Laboratories Japan, Inc., Hino Breeding Center. The mice at the age of 8 or 9 weeks were dosed after completing a 7‐day quarantine period and an additional 0‐ to 7‐day acclimatization period. All animal experiments were conducted in accordance with the Guidance for the Care and Use of Laboratory Animals in our laboratory, which corresponds to the Guidelines for Proper Conduct of Animal Experiments (Science Council of Japan). Animals were maintained under constant environmental conditions: room temperature, 21−25°C; relative humidity, 55% ±15%; ventilation, 10 air exchanges per hour; and artificial lighting, from 8:00 am to 8:00 pm. The animals were provided with pelleted diet and water ad libitum. […] All animals were euthanized by bleeding from the abdominal artery under anesthesia.
# [^14C]Epyrifenacil was isotopically diluted with the unlabeled test compound to adjust the specific activity to 5.00 MBq/mg. After evaporation of the solvent under nitrogen gas flow, labeled material was suspended in 0.5% (w/v) methylcellulose solution at a concentration of 1 mg/5 ml by grinding in a mortar. The suspension was stored frozen until the start of dosing. The radiochemical purity of the dosing suspension was analyzed by radio‐HPLC and was confirmed to be >99%. […] These dosing suspensions were stored in a refrigerator until dosing commenced.
# Three mice per sex at 8 weeks old were given a single oral dose of [^14C]epyrifenacil at 1 mg/kg with or without co‐administration of OATP inhibitors. […] At 2 h after administration of [^14C]epyifenacil, the animals were euthanized by whole blood collection from the abdominal aorta under anesthesia with isoflurane. The sampling time point was selected as the time around T max based on the result of the blood ^14C‐concentration study. Then, the liver and kidney were dissected out, and the amount of ^14C was measured. Aliquots of heparinized blood samples were separated into blood cells and plasma by centrifugation at 2000g for 10 min at 4°C. The total weight of the liver and kidney was determined for each animal. Two aliquots of plasma and tissue samples (approximately 0.05–0.1 g) were weighed in a glass vial, and the radioactivity was measured.
# [1] = Female, epyrifenacil 1 mg/kg p.o. + Digoxin 100 mg/kg i.p.
# [2] = Female, epyrifenacil 1 mg/kg p.o. + Digoxin 200 mg/kg p.o.
# [3] = Female, epyrifenacil 1 mg/kg p.o. + Rifampicin 200 mg/kg p.o.
# [4] = Female, epyrifenacil 1 mg/kg p.o., no inhibitor
# [5] = Female, 2 h after epyrifenacil 1 mg/kg p.o. + Digoxin 100 mg/kg i.p.
# [6] = Female, 2 h after epyrifenacil 1 mg/kg p.o. + Digoxin 100 mg/kg i.p., listed as [^14C]Epyrifenacil
# [7] = Female, 2 h after epyrifenacil 1 mg/kg p.o. + Digoxin 200 mg/kg p.o.
# [8] = Female, 2 h after epyrifenacil 1 mg/kg p.o. + Digoxin 200 mg/kg p.o., listed as [^14C]Epyrifenacil
# [9] = Female, 2 h after epyrifenacil 1 mg/kg p.o. + Rifampicin 200 mg/kg p.o.
# [10] = Female, 2 h after epyrifenacil 1 mg/kg p.o. + Rifampicin 200 mg/kg p.o., listed as [^14C]Epyrifenacil
# [11] = Female, 2 h after epyrifenacil 1 mg/kg p.o., no inhibitor
# [12] = Female, 2 h after epyrifenacil 1 mg/kg p.o., no inhibitor, listed as [^14C]Epyrifenacil
# [13] = Male, epyrifenacil 1 mg/kg p.o. + Digoxin 100 mg/kg i.p.
# [14] = Male, epyrifenacil 1 mg/kg p.o. + Digoxin 200 mg/kg p.o.
# [15] = Male, epyrifenacil 1 mg/kg p.o. + Rifampicin 200 mg/kg p.o.
# [16] = Male, epyrifenacil 1 mg/kg p.o., no inhibitor
# [17] = Male, 2 h after epyrifenacil 1 mg/kg p.o. + Digoxin 100 mg/kg i.p.
# [18] = Male, 2 h after epyrifenacil 1 mg/kg p.o. + Digoxin 100 mg/kg i.p., listed as [^14C]Epyrifenacil
# [19] = Male, 2 h after epyrifenacil 1 mg/kg p.o. + Digoxin 200 mg/kg p.o.
# [20] = Male, 2 h after epyrifenacil 1 mg/kg p.o. + Digoxin 200 mg/kg p.o., listed as [^14C]Epyrifenacil
# [21] = Male, 2 h after epyrifenacil 1 mg/kg p.o. + Rifampicin 200 mg/kg p.o.
# [22] = Male, 2 h after epyrifenacil 1 mg/kg p.o. + Rifampicin 200 mg/kg p.o., listed as [^14C]Epyrifenacil
# [23] = Male, 2 h after epyrifenacil 1 mg/kg p.o., no inhibitor
# [24] = Male, 2 h after epyrifenacil 1 mg/kg p.o., no inhibitor, listed as [^14C]Epyrifenacil
compound,measurement,setting,value
"CCOC(=O)COc1ncccc1Oc1cc(-n2c(=O)cc(C(F)(F)F)n(C)c2=O)c(F)cc1Cl [Epyrifenacil, ethyl[(3‐{2‐chloro‐4‐fluoro‐5‐[3‐methyl‐2,6‐dioxo‐4‐(trifluoromethyl)‐3,6‐dihydropyrimidin‐1(2H)‐yl]phenoxy}pyridin‐2‐yl)oxy]acetate]",Kidney/plasma ratio of ^14C,[1],(2.2)
same,Liver/plasma ratio of ^14C,[1],(41)
same,Kidney/plasma ratio of ^14C,[2],(1.6)
same,Liver/plasma ratio of ^14C,[2],(43)
same,Liver/plasma ratio of ^14C,"Female, epyrifenacil 1 mg/kg p.o. + Digoxin 200 mg/kg p.o., listed as [^14C]epyrifenacil",ca. 43
same,Kidney/plasma ratio of ^14C,[3],(0.60)
same,Liver/plasma ratio of ^14C,[3],(4.0)
same,Liver/plasma ratio of ^14C,"Female, epyrifenacil 1 mg/kg p.o. + Rifampicin 200 mg/kg p.o., listed as [^14C]epyrifenacil",~4
same,Kidney/plasma ratio of ^14C,[4],(1.3)
same,Liver/plasma ratio of ^14C,[4],(35)
same,Liver/plasma ratio of ^14C,"Female, epyrifenacil 1 mg/kg p.o., no inhibitor, listed as [^14C]epyrifenacil",~35
same,"^14C‐Concentration, Kidney",[5],0.184 ± 0.0360 μg eq. of epyrifenacil/g tissue
same,"^14C‐Concentration, Liver",[5],3.390 ± 1.9870 μg eq. of epyrifenacil/g tissue
same,"^14C‐Concentration, Plasma",[5],0.082 ± 0.0574 μg eq. of epyrifenacil/g tissue
same,"^14C‐Concentration, Kidney",[6],0.184 μg eq. of epyrifenacil/g tissue
same,"^14C‐Concentration, Liver",[6],3.390 μg eq. of epyrifenacil/g tissue
same,"^14C‐Concentration, Plasma",[6],0.082 μg eq. of epyrifenacil/g tissue
same,"^14C‐Concentration, Kidney",[7],0.086 ± 0.0096 μg eq. of epyrifenacil/g tissue
same,"^14C‐Concentration, Liver",[7],2.344 ± 0.4524 μg eq. of epyrifenacil/g tissue
same,"^14C‐Concentration, Plasma",[7],0.054 ± 0.0118 μg eq. of epyrifenacil/g tissue
same,"^14C‐Concentration, Kidney",[8],0.086 μg eq. of epyrifenacil/g tissue
same,"^14C‐Concentration, Liver",[8],2.344 μg eq. of epyrifenacil/g tissue
same,"^14C‐Concentration, Plasma",[8],0.054 μg eq. of epyrifenacil/g tissue
same,"^14C‐Concentration, Kidney",[9],0.130 ± 0.0548 μg eq. of epyrifenacil/g tissue
same,"^14C‐Concentration, Liver",[9],0.880 ± 0.4160 μg eq. of epyrifenacil/g tissue
same,"^14C‐Concentration, Plasma",[9],0.217 ± 0.1551 μg eq. of epyrifenacil/g tissue
same,"^14C‐Concentration, Kidney",[10],0.130 μg eq. of epyrifenacil/g tissue
same,"^14C‐Concentration, Liver",[10],0.880 μg eq. of epyrifenacil/g tissue
same,"^14C‐Concentration, Plasma",[10],0.217 μg eq. of epyrifenacil/g tissue
same,"^14C‐Concentration, Kidney",[11],0.190 ± 0.0511 μg eq. of epyrifenacil/g tissue
same,"^14C‐Concentration, Liver",[11],5.136 ± 1.1225 μg eq. of epyrifenacil/g tissue
same,"^14C‐Concentration, Plasma",[11],0.147 ± 0.0642 μg eq. of epyrifenacil/g tissue
same,"^14C‐Concentration, Kidney",[12],0.190 μg eq. of epyrifenacil/g tissue
same,"^14C‐Concentration, Liver",[12],5.136 μg eq. of epyrifenacil/g tissue
same,"^14C‐Concentration, Plasma",[12],0.147 μg eq. of epyrifenacil/g tissue
same,Kidney/plasma ratio of ^14C,[13],(1.7)
same,Liver/plasma ratio of ^14C,[13],(67)
same,Kidney/plasma ratio of ^14C,[14],(2.6)
same,Liver/plasma ratio of ^14C,[14],(97)
same,Liver/plasma ratio of ^14C,"Male, epyrifenacil 1 mg/kg p.o. + Digoxin 200 mg/kg p.o., listed as [^14C]epyrifenacil",ca. 97
same,Kidney/plasma ratio of ^14C,[15],(0.96)
same,Liver/plasma ratio of ^14C,[15],(11)
same,Kidney/plasma ratio of ^14C,[16],(1.3)
same,Liver/plasma ratio of ^14C,[16],(73)
same,Liver/plasma ratio of ^14C,"Male, epyrifenacil 1 mg/kg p.o., no inhibitor, listed as [^14C]epyrifenacil",ca. 73
same,"^14C‐Concentration, Kidney",[17],0.140 ± 0.0527 μg eq. of epyrifenacil/g tissue
same,"^14C‐Concentration, Liver",[17],5.527 ± 1.3453 μg eq. of epyrifenacil/g tissue
same,"^14C‐Concentration, Plasma",[17],0.083 ± 0.0027 μg eq. of epyrifenacil/g tissue
same,"^14C‐Concentration, Kidney",[18],0.140 μg eq. of epyrifenacil/g tissue
same,"^14C‐Concentration, Liver",[18],5.527 μg eq. of epyrifenacil/g tissue
same,"^14C‐Concentration, Plasma",[18],0.083 μg eq. of epyrifenacil/g tissue
same,"^14C‐Concentration, Kidney",[19],0.044 ± 0.0051 μg eq. of epyrifenacil/g tissue
same,"^14C‐Concentration, Liver",[19],1.647 ± 0.7217 μg eq. of epyrifenacil/g tissue
same,"^14C‐Concentration, Plasma",[19],0.017 ± 0.0064 μg eq. of epyrifenacil/g tissue
same,"^14C‐Concentration, Kidney",[20],0.044 μg eq. of epyrifenacil/g tissue
same,"^14C‐Concentration, Liver",[20],1.647 μg eq. of epyrifenacil/g tissue
same,"^14C‐Concentration, Plasma",[20],0.017 μg eq. of epyrifenacil/g tissue
same,"^14C‐Concentration, Kidney",[21],0.144 ± 0.0794 μg eq. of epyrifenacil/g tissue
same,"^14C‐Concentration, Liver",[21],1.671 ± 1.2478 μg eq. of epyrifenacil/g tissue
same,"^14C‐Concentration, Plasma",[21],0.151 ± 0.0791 μg eq. of epyrifenacil/g tissue
same,"^14C‐Concentration, Kidney",[22],0.144 μg eq. of epyrifenacil/g tissue
same,"^14C‐Concentration, Liver",[22],1.671 μg eq. of epyrifenacil/g tissue
same,"^14C‐Concentration, Plasma",[22],0.151 μg eq. of epyrifenacil/g tissue
same,"^14C‐Concentration, Kidney",[23],0.124 ± 0.0180 μg eq. of epyrifenacil/g tissue
same,"^14C‐Concentration, Liver",[23],6.763 ± 0.1014 μg eq. of epyrifenacil/g tissue
same,"^14C‐Concentration, Plasma",[23],0.092 ± 0.0066 μg eq. of epyrifenacil/g tissue
same,"^14C‐Concentration, Kidney",[24],0.124 μg eq. of epyrifenacil/g tissue
same,"^14C‐Concentration, Liver",[24],6.763 μg eq. of epyrifenacil/g tissue
same,"^14C‐Concentration, Plasma",[24],0.092 μg eq. of epyrifenacil/g tissue
same,Liver/plasma ratio of ^14C‐concentration,female,41–43
same,^14C‐concentration in liver,"females, co‐administration of RIF 200 mg/kg oral",0.880 ppm
same,^14C‐concentration in liver,"females, epyrifenacil 1 mg/kg p.o., no inhibitor",5.136 ± 1.1225 ppm
same,Liver/plasma ratio of ^14C‐concentration,male,67–97
same,^14C‐concentration in liver,"males, co‐administration of RIF 200 mg/kg oral",1.671 ppm
same,^14C‐concentration in liver,"males, epyrifenacil 1 mg/kg p.o., no inhibitor, ppm = µg eq. of epyrifenacil/g",6.763 ± 0.1014 ppm
